Columns and labels:
[1] = test system: A549; assay: Antiproliferative activity against human A549 cells assessed as inhibition of cell proliferation incubated for 72 hrs by MTT assay; format: functional, cell-based; settings: A549, 72 h
[2] = test system: PC-9; assay: Antiproliferative activity against human PC-9 cells assessed as inhibition of cell proliferation incubated for 72 hrs by MTT assay; format: functional, cell-based; settings: PC-9, 72 h
[3] = test system: NCI-H1975; assay: Antiproliferative activity against human NCI-H1975 cells assessed as inhibition of cell proliferation incubated for 72 hrs by MTT assay; format: functional, cell-based; settings: NCI-H1975, 72 h
[4] = Cytotoxicity against human MRC5 cells assessed as inhibition of cell proliferation incubated for 72 hrs by MTT assay; format: toxicity, cell-based
[5] = Selectivity index, ratio of IC50 for cytotoxicity against human MRC5 cells assessed as inhibition of cell proliferation to IC50 for antiproliferative activity against human NCI-H1975 cells assessed as inhibition of cell proliferation; format: toxicity, cell-based; settings: MRC5 cells and NCI-H1975 cells, read-out: Ratio IC50

IC50 [1] [µM] | IC50 [2] [µM] | IC50 [3] [µM] | SMILES | IC50 at 72 h [4] [µM] | selectivity ratio [5]
> 40 | > 40 | > 40 | CCC(=O)Nc1nc2cc(-c3cccc(C(=O)NCCOC)c3)ccc2s1 | > 80 | –
> 40 | > 40 | > 40 | CC(=O)Nc1nc2cc(-c3cccc(C(=O)NCC4CC4)c3)ccc2s1 | > 80 | –
> 40 | 11.9 | > 40 | O=C(NCC1CC1)c1cccc(-c2ccc3sc(NC(=O)c4ccc(F)cc4)nc3c2)c1 | > 80 | –
> 40 | > 40 | 17.7 | COCCNC(=O)c1cccc(-c2ccc3sc(NC(=O)c4ccccc4)nc3c2)c1 | > 80 | > 4.52
> 40 | > 40 | 9.35 | CC(=O)Nc1nc2cc(-c3cccc(C(=O)NCc4ccc(F)cc4)c3)ccc2s1 | > 80 | > 8.56
> 40 | > 40 | > 40 | CCC(=O)Nc1nc2cc(-c3cccc(C(=O)NCC4CC4)c3)ccc2s1 | > 80 | –
> 40 | > 40 | > 40 | Cc1ccc(CNC(=O)c2cccc(-c3ccc4sc(NC(=O)C5CCCCC5)nc4c3)c2)cc1 | > 80 | –
> 40 | > 40 | > 40 | CCCC(=O)Nc1nc2cc(-c3cccc(C(=O)NCCOC)c3)ccc2s1 | > 80 | –
0.83 | 0.91 | 1.02 | CC(=O)Nc1nc2cc(-c3ccc4ncn(Cc5ccccc5)c(=O)c4c3)ccc2[nH]1 | 1.87 | 1.83
> 40 | 13.9 | 4.4 | CC(C)CCNC(=O)c1cccc(-c2ccc3sc(NC(=O)C(C)(C)C)nc3c2)c1 | > 80 | > 18.2
31.4 | > 40 | 8.16 | CCCNC(=O)c1cccc(-c2ccc3sc(NC(=O)C(C)(C)C)nc3c2)c1 | > 80 | > 9.8

From ChEMBL document CHEMBL6078662, “Discovery of 3-(2-aminobenzo[d]thiazol-5-yl) benzamide derivatives as potent anticancer agents via ROR1 inhibition” (Bioorg Med Chem, 2025)
